Data set [1] deals with A375 human melanoma xenograft. The following applies: for survivors (FIG. 10 comparison): I.P. An excerpt:
The following study evaluates two intravenous formulations according to the present invention against human tumor xenografts in athymic nude mice. […] Examples 1 and 2 describe the compositions of IDD-P (FIG. 1; formulation 1-F) and IDD-D respectively.
Husbandry: Female nude mice were 16 weeks of age (NCR-nufBr; Taconic Farms) for the A375 study. The mice were fed ad libitum water (reverse osmosis, 1 ppm C1) and autoclaved Prolab NIH-31 M/5% Rodent Diet consisting of 18% protein, 5% fat, 6% fiber, and 8% ash. Mice were housed in static microisolators on a 12-hour light cycle at 21-22° C. (70-72° F.) and 40%-60% humidity. The animal care and use program is AAALAC International accredited and specifically follows and complies with the recommendation of the National Research Council's Guidefor the Care and Use of Laboratory Animals.
Tumor Implantation: An A375 melanoma fragment (1 mm 3) was implanted subcutaneously in the flank of each nude mouse. When the tumors reached the 60-112 mg size range, the mice were sorted into treatment groups (on Day 1) such that the group mean tumor sizes ranged from 71.3 mg-72.5 mg. Estimated tumor weight was calculated using the formula: [formula]
CAMPTOSAR®, DTIC®, and HYCAMTIN® were obtained as the marketed drugs and solutions were prepared fresh on the day of dosing. CAMPTOSAR® (irinotecan, Phannacia & Upjohn Company, 20 mg/ml) and DTIC® (dacarbazine, Bayer Corporation, 20 mg/ml) were diluted with D5W. HYCAMTIN® (topotecan, SmithKlein Beecham) was reconstituted with water at 1 mg/ml.
Treatments: Volumes of 0.20 ml per 20-g mouse, body-weight adjusted, were administered once daily. Tumor-bearing athymic nude mice were matched on Day 1 into 13 groups of ten animals and drug administration was initiated. […] Three reference drugs were administered I.P.: CAMPTOSAR® was given in three doses at weekly intervals (qwk×3); HYCAMTIN® was given in four doses at four-day intervals (q4d×4); and DTIC® was given in five consecutive daily doses (qd×5). The tumor growth control group for these reference treatments received no treatment (Group 1).
Tumor Growth Endpoint: The tumor growth delay (TGD) method was used to assess efficacy. Tumor dimensions were measured twice weekly until the experiment was terminated on Day 62. Each animal was euthanized as a “cancer death” when its A375 melanoma reached a size of 2.0 g. Mean Day of Survival (MDS) values for all groups were based on the calculated day of death of each mouse, which is given by the formula: [formula]
TGD values, which represent treatment-effected extensions of survival time, were calculated from MDStreated−MDScontrol, the difference in MDS value for a given treatment group and the MDS value for A375 melanoma-bearing mice that received no treatment or the corresponding vehicle.
At the termination of the experiment on Day 62, treatment responses in survivors were classified as either complete tumor regression (CR), partial tumor regression (PR), or stable/progressive disease (SD/PD). A CR response indicates the absence of measurable tumor. In a PR response, the final tumor weight is lower than on Day 1 but larger than 0 mg. In a SD/PD response, mice survived to Day 62 with a progressively growing or stable tumor size that had not reached the 2.0-g endpoint.
Evaluation of Toxicity: The maximum tolerated dose (MTD), as defined by the NCI, is the highest dose at which no more than 10% of the animals die and the group mean body-weight loss is no more than 20%. Body weights were measured daily for four or five days and then twice weekly thereafter until the experiments were terminated on Day 62 of the study. The animals were also examined frequently for clinical signs of any adverse, drug-related side effects. Because mice are not tagged for MTD studies, only the mean group body weights recorded in the appended raw data are significant in those studies.

For data set [2] the following is noted: cited from earlier work.
Data set [3] deals with human serum albumin (HSA) (Homo sapiens, UniProt P02768). The following applies: PBS at pH 7.4; cited from earlier work.
Sequence of human serum albumin (HSA) (P02768 25-609): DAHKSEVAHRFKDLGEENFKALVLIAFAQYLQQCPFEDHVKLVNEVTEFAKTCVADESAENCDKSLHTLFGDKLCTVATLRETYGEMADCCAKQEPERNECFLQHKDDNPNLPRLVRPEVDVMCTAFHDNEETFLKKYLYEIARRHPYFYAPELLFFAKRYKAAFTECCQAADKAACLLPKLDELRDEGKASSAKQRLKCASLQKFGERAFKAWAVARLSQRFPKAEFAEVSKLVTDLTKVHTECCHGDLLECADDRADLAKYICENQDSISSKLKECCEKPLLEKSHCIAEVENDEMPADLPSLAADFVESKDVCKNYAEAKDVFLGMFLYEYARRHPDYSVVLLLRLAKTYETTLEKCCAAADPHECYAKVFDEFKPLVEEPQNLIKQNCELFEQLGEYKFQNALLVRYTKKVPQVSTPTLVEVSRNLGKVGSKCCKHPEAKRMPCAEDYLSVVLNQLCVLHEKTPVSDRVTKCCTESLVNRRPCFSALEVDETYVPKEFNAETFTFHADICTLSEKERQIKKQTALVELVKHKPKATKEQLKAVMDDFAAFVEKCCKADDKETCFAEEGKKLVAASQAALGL
For data set [4] the following is noted: human plasma, pH 7.4, 37° C.; cited from earlier work.
The conditions of data set [5]: whole blood; cited from earlier work.
Where [6] appears, read: in 3% DMA 2.0 mg/kg p.o., q3d×4.
[7] abbreviates: in 3% DMA 4.0 mg/kg p.o., q3d×4.

The values below come from US6497896B2, “Method for administering camptothecins via injection of a pharmaceutical composition comprising microdroplets containing a camptothecin” (priority 2001, dated 2002).

Molecules are shown by their SMILES. Like-named read-outs stand apart in the source and are kept apart here.

As for `CC[C@@]1(O)C(=O)OCc2c1cc1n(c2=O)Cc2cc3c([N+](=O)[O-])cccc3nc2-1` [9-nitro-camptothecin, 9-nitro-20(S)-camptothecin], the “CR responses, share of mice” value in data set [1] (2 mg/kg p.o., q3d×4) is listed as 40%. In data set [1] (4 mg/kg p.o., q3d×4), the “CR responses, share of mice” value is on record as 40%. Moreover, in data set [1] (setting [6]), the 62-day survival rate is 70%, the “62-day survivors (number of 10 mice)” value is on record as “seven”, the “CR responses on Day 62” value is given as 4 and the “PR responses on Day 62” value was determined as 1. Besides, in data set [1] (setting [6]), the “SD/PD responses on Day 62” value is on record as 2 and the tolerability result is on record as “well tolerated”. In addition, the “mean day of survival (MDS)” value in data set [1] (in 3% DMA 2.0 mg/kg p.o., q3d×4, Group 13 (n=3)) is listed as 47.6 days. Besides, in data set [1] (in 3% DMA 2.0 mg/kg p.o., q3d×4, vs vehicle control Group 4), the “tumor growth delay (TGD)” value was 21.6 days. In addition, in data set [1] (setting [7]), the 62-day survival rate amounted to 70%, the “62-day survivors (number of 10 mice)” value is on record as “seven”, the “CR responses on Day 62” value stood at 4 and the “SD/PD responses on Day 62” value came out at 3. Moreover, the tolerability entry in data set [1] (setting [7]) is “well tolerated”. Moreover, the “mean day of survival (MDS)” value in data set [1] (in 3% DMA 4.0 mg/kg p.o., q3d×4, Group 12 (n=3)) came out at 45.3 days. Moreover, in data set [1] (in 3% DMA 4.0 mg/kg p.o., q3d×4, vs vehicle control Group 4), the “tumor growth delay (TGD)” value amounted to 19.3 days.

Consider `CCc1c2c(nc3ccc(OC(=O)N4CCC(N5CCCCC5)CC4)cc13)-c1cc3c(c(=O)n1C2)COC(=O)[C@]3(O)CC` [CAMPTOSAR®, irinotecan], for which the “62-day survivors (number of 10 mice)” value in data set [1] (100 mg/kg I.P., qwk×3) is given as “one”. Besides, the “mean day of survival (MDS)” value in data set [1] (100 mg/kg I.P., qwk×3, Group 5 (n=9)) amounted to 47.3 days. Besides, the “tumor growth delay (TGD)” value in data set [1] (100 mg/kg I.P., qwk×3, vs untreated Group 1) came out at 17 days. The “survivors (FIG. 10 comparison)” value in data set [1] (optimal regimen (100 mg/kg qwk×3)) turned out to be 0%.

Turning to `CN(C)/N=N/c1[nH]cnc1C(N)=O` [DTIC®, dacarbazine], in data set [1] (150 mg/kg I.P., qd×5, Group 7 (n=8)), the “mean day of survival (MDS)” value was determined as 37.6 days. Also, the “tumor growth delay (TGD)” value in data set [1] (150 mg/kg I.P., qd×5, vs untreated Group 1, not statistically significant) came out at 7.3 days. Moreover, the “survivors (FIG. 10 comparison)” value in data set [1] (optimal regimen (150 mg/kg qd×5)) is 10%.

With `CC[C@@]1(O)C(=O)OCc2c1cc1n(c2=O)Cc2cc3c(CN(C)C)c(O)ccc3nc2-1` [HYCAMTIN®, topotecan], the “62-day survivors (number of 10 mice)” value in data set [1] (10 mg/kg I.P., q4d×4) is “one”. Further, the “mean day of survival (MDS)” value in data set [1] (10 mg/kg I.P., q4d×4, Group 6 (n=9)) was 46.7 days. Further, the “tumor growth delay (TGD)” value in data set [1] (10 mg/kg I.P., q4d×4, vs untreated Group 1) was 16.4 days. Further, in data set [1] (optimal regimen (10 mg/kg q4d×4)), the “survivors (FIG. 10 comparison)” value was found to be 0%.

On to `CC[C@@](O)(C(=O)[O-])c1cc2n(c(=O)c1CO)Cc1cc3ccccc3nc1-2.[Na+]` [Sodium camptothecin], for which the side effects result in data set [2] (administered via i.v.) is “unpredictable side effects such as myelosuppression and hemorrhagic cystitis”. In data set [2] (solubilized by sodium hydroxide in water, early 70's), the “antitumor activity in clinical trials” value is reported as “antitumor activity”.

For `CC[C@@]1(O)C(=O)OCc2c1cc1n(c2=O)Cc2cc3ccccc3nc2-1` [camptothecin, 20(S)-camptothecin], in data set [3], the “affinity of HSA for carboxylate form versus α-hydroxy lactone form” value is 150 fold. In addition, in data set [4], the “% α-hydroxy lactone at equilibrium” value is on record as 0.2% and the “half-life of lactone ring opening” value was 11 min. Moreover, in data set [5], the “equilibrium α-hydroxy lactone concentration” value is 5.3% and the half-life of lactone is reported as 22 min.
